# Measurements taken from US20070224321A1, “Baked Goods Comprising High-Potency Sweetener” (THE COCA-COLA COMPANY, priority 2005, published 2007).
# Format: physicochemical
# Procedure: A solution of rebaudioside A (>97% pure by HPLC ) was prepared in double distilled water (12.5 gm in 50 mL, 25% concentration) by stirring the mixture at 40° C. for 5 minutes. An amorphous form of_rebaudioside A was formed by immediately using the clear solution for spray drying with the Lab-Plant spray drier SD-04 instrument (Lab-Plant Ltd., West Yorkshire, U.K.). The solution was fed through the feed pump into the nozzle atomizer which atomized it into a spray of droplets with the help of a constant flow of nitrogen/air. […] This dry powder (11-12 g, H2O 6.74%) was discharged continuously from the drying chamber and was collected in a bottle.
substance,measurement,value
rebaudioside A [Form 4],solubility in water at room temperature,> 35.0%
